Experimental data from patent US11596598B2, “Chlorogenic acid-containing composition for nasal administration” (SICHUAN JIUZHANG BIOLOGICAL SCIENCE AND TECHNOLOGY CO., LTD, priority 2019, dated 2023).

Tests used:
[1] = tested on: Rat C6 glioma cells; experiment: Inhibitory effect of nasal administration and intraperitoneal injection on glioma in rats; format: in vivo, SD rats; conditions: rat C6 brain glioma; for Tumor size: imaging on 21st day
Experimental: 1.1.3 Positive Control Drug: Temozolomide
40 SD rats, half male and half […], weighing 180-220 g.
Rat C6 glioma cells were incubated in 10% calf serum DMEM complete culture medium, subcultured in a monolayer culture method and allowed to grow to the required number of cells, and then subcultured once before inoculation. Cells in logarithmic growth phase are collected, digested with trypsin, centrifuged, and made to 1×10^4/10 μL cell suspension with Hanks solution, then stored in a refrigerator at 4° C. for inoculation.
Rats were anesthetized by intraperitoneal injection of 10% chloral hydrate, and the hair on the top of the rat's head was cut off and disinfected with iodine. The scalp was cut to expose the skull, and an electronic dental drill was used to open the cranium 1 mm behind the coronal suture and 3 mm to the right of the sagittal suture. 10 μL C6 cell suspension was injected, the bone hole was sealed with bone wax, and the incision was sutured. 5 days after tumor inoculation, the rats were examined by imaging, and tumorigenic rats were selected.
The tumorigenic rats were randomly divided into 8 groups, 5 rats for each group, and the groups included nasal administration groups: chlorogenic acid bulk drug group, the nasal powder group of example 1, the nasal powder group of example 5, the aerosol group of example 6, and the aerosol group of example 7; intraperitoneal injection group of chlorogenic acid, temozolomide positive control drug group, and blank group. For nasal administration, each test drug group received corresponding drugs at a dose of 20 mg/kg chlorogenic acid daily; intraperitoneal injection group of chlorogenic acid was administrated at a dose of 20 mg/kg chlorogenic acid daily; temozolomide positive control group was administered intragastrically at a dose of 25 mg/kg daily. Each test group started to be given the drug on the 6th day after tumor inoculation for 20 consecutive days, and on the 21st day each drug group and the blank group were imaged to check the tumor size.
SPSS software was used to perform t test, analysis of variance and multiple comparisons test.
The post-processing platform was used to measure the tumor volume on the 3DFSPGR sequence, and the tumor inhibition rate was calculated.

[2] = tested on: telomerase; experiment: Telomerase detection in nasopharyngeal tissue of rats; format: in vivo, SD rats; conditions: rat nasopharyngeal tissue homogenate, Telomerase ELISA-PCR kit, 20th week
Experimental: SD rats were randomly divided into 8 groups, 5 rats for each group, and the groups included nasal administration groups: chlorogenic acid bulk drug group, the nasal powder group of example 1, the nasal powder group of example 5, the aerosol group of example 6, and the aerosol group of example 7; intraperitoneal injection group of chlorogenic acid, positive control drug group, and blank group. Amongst, for nasal administration, each test drug group received corresponding drugs at a dose of 20 mg/kg chlorogenic acid daily, once a day; intraperitoneal injection group of chlorogenic acid was administrated at a dose of 20 mg/kg chlorogenic acid daily, once a day; retinoic acid positive drug group was administered intragastrically at a dose of 90 mg/kg daily, once a day. Rats in each experimental group were given dinitrosopiperazine and phorbol ester to promote cancer. […] The rats were sacrificed at the 20th week, rhinitis tissues were dissected, histopathology was observed, and telomerase was detected.
Nasopharyngeal tissue homogenate was weighed and centrifuged, and then the supernatant was collected and processed according to Telomerase ELISA-PCR kit instruction (Shanghai Boehringer Mannheim Co.). After obtaining PCR reaction product, the telomerase activity was quantitatively detected, followed by concentration and electrophoresis on polyacrylamide gel, then staining with silver nitrate.

[3] = Blood-brain barrier permeability in rats after nasal administration (chlorogenic acid content in brain tissue); format: in vivo; conditions: SD, rat, other: nasal administration, 20 mg/kg chlorogenic acid
Experimental: 150 SD rats, half male and half […], weighing 180-220 g.
SD rats were randomly divided into 5 groups, 30 rats for each group, and each test drug was administrated nasally at a dose of 20 mg/kg chlorogenic acid. The tissue samples were collected at 10 min, 30 min, 60 min, 90 min, 120 min, and 150 min after administration.
After administration, each experimental group was intraperitoneally injected with 1% pentobarbital sodium (0.2 mL) for deep anesthesia according to the time point, and then a needle was inserted from the left ventricle. The right ventricle was cut, and physiological saline was injected with a syringe for cardiac perfusion until the liver and spleen turned gray, and the brain tissue was taken out.
The brain tissue was placed in a homogenizer, to which was added 0.9% sodium chloride injection according to brain tissue: normal saline=1:1 (w/v) and then homogenized. To 200 μL homogenate, were added 50 mg/mL puerarin internal standard solution (200 μL) and methanol (200 μL), and then the mixture was vortexed and centrifuged. The supernatant was collected as the brain tissue test solution.
(§1) Octadecylsilane-bonded silica gel column (150 mm×4.6 mm, 5 μm) and guard column were used; mobile phase A (methanol) and mobile phase B (0.2% phosphoric acid) were used to perform desorption according to a gradient elution procedure; the detection wavelength was 325 nm; the flow rate was 1 mL/min; the column temperature was 40° C.
20 μL of the brain tissue test solution was accurately measured, and injected into the liquid chromatograph, to record the chromatogram. The internal standard method was used to calculate the content of chlorogenic acid in […] with accompanying standard curve.

[4] = tested on: nasopharyngeal carcinoma; experiment: Inhibitory effect on nasopharyngeal carcinoma in rats: nasopharyngeal tissue paraffin microscopy; format: in vivo, SD rats; conditions: nasal administration, 20 mg/kg chlorogenic acid once a day, 5 rats per group, dinitrosopiperazine/phorbol ester induced, 20th week
Text: 1.1.3 Positive Control Drug: Retinoic Acid
SD rats, half male and half […], weighing 180-220 g.
SD rats were randomly divided into 8 groups, 5 rats for each group, and the groups included nasal administration groups: chlorogenic acid bulk drug group, the nasal powder group of example 1, the nasal powder group of example 5, the aerosol group of example 6, and the aerosol group of example 7; intraperitoneal injection group of chlorogenic acid, positive control drug group, and blank group. Amongst, for nasal administration, each test drug group received corresponding drugs at a dose of 20 mg/kg chlorogenic acid daily, once a day; intraperitoneal injection group of chlorogenic acid was administrated at a dose of 20 mg/kg chlorogenic acid daily, once a day; retinoic acid positive drug group was administered intragastrically at a dose of 90 mg/kg daily, once a day. Rats in each experimental group were given dinitrosopiperazine and phorbol ester to promote cancer. Dinitrosopiperazine was injected into the armpit at a dose of 40 mg/kg to induce carcinogenesis, twice a week, for a total of 15 weeks. After dinitrosopiperazine was injected for two weeks, phorbol diester was injected at a dose of 50 ng/rat, twice a week, for a total of 15 weeks. The rats were sacrificed at the 20th week, rhinitis tissues were dissected, histopathology was observed, and telomerase was detected.
Rat nasopharyngeal tissues were fixed with 10% formaldehyde, decalcified in Jenkin's solution, further fixed in neutral formalin, and embedded in paraffin to make serial sections, then stained with hematoxylin and eosin and observed under a microscope.

[5] = Bioavailability of nasal administration in beagle dogs (chlorogenic acid content in blood); format: in vivo; conditions: male, dog, serum, other: nasal administration, 4 mg/kg chlorogenic acid
Experimental: • Six male beagle dogs, weighing 10-13 kg.
Six beagle dogs were randomly divided into groups and cross-administered with one week interval.
After fasting for 12 h, test animals were given chlorogenic acid, nasal powder, and aerosol at a dose of 4 mg/kg chlorogenic acid by nasal administration, and one additional dog was injected intravenously with chlorogenic acid at 4 mg/kg. 3 h after administration, dogs were allowed to feed;
10 min, 30 min, 60 min, 90 min, 120 min, 150 min after administration of beagle dogs, 3 mL intravenous blood was collected, heparin was used to anticoagulate, and then 1 mL serum was separated by centrifugation, and stored in a refrigerator at −20° C.
To 100 μL serum, were added methanol-0.2% phosphoric acid (80:20) solution (100 μL), the solution of puerarin in methanol as internal standard (50 mg/mL, 100 μL), and 100 μL methanol. The resultant solution was vortexed for 3 min, allowed to stand, and centrifuged (12000 rpm) for 10 min. The supernatant was collected as the serum test solution.
as §1
20 μL of the serum test solution was accurately measured, and injected into the liquid chromatograph, to record the chromatogram. The internal standard method was used to calculate the content of chlorogenic acid in serum with accompanying standard curve.

[6] = nasal administration, 20 mg/kg chlorogenic acid daily for 20 days
[7] = 10 min after nasal administration
[8] = 30 min after nasal administration
[9] = 60 min after nasal administration
[10] = 90 min after nasal administration
[11] = 120 min after nasal administration
[12] = 150 min after nasal administration
[13] = listed as chlorogenic acid raw material
[14] = intraperitoneal injection, 25 mg/kg daily for 20 days

For `O=C(/C=C/c1ccc(O)c(O)c1)O[C@@H]1C[C@](O)(C(=O)O)C[C@@H](O)[C@H]1O` [Chlorogenic acid bulk drug, Chlorogenic acid], the Tumor inhibition rate [1, 6] was 22.35%, the Tumor size [1, 6] was 48.35 ± 4.83 mm3 and the telomerase activity ([2]; nasal administration, 20 mg/kg chlorogenic acid once a day) was 0.56±0.17. For the same molecule, the concentration at 10 min [3, 7] was 0 ng/g, the concentration at 30 min [3, 8] was 320 ng/g and the concentration at 60 min [3, 9] was 860 ng/g. For the same molecule, the concentration at 90 min [3, 10] was 650 ng/g, the concentration at 120 min [3, 11] was 320 ng/g and the concentration at 150 min [3, 12] was 130 ng/g. For the same molecule, the “Dysplastic tissue (number of rats, nasopharyngeal tissue paraffin microscopy)” value [4] was 3, the “Normal tissue (number of rats, nasopharyngeal tissue paraffin microscopy)” value [4] was 1 and the “Simple hyperplasia (number of rats, nasopharyngeal tissue paraffin microscopy)” value [4] was 1. The “Dysplastic tissue (number of rats, nasopharyngeal tissue paraffin microscopy)” value [4, 13] was “three”, the “Simple hyperplasia (number of rats, nasopharyngeal tissue paraffin microscopy)” value [4, 13] was “one” and the concentration at 10 min [5, 7] was 1020 ng/mL. The concentration at 30 min [5, 8] was 5740 ng/mL, the concentration at 60 min [5, 9] was 2200 ng/mL and the concentration at 90 min [5, 10] was 980 ng/mL. The concentration at 120 min [5, 11] was 520 ng/mL and the concentration at 150 min [5, 12] was 220 ng/mL.

For `CC1=C(/C=C/C(C)=C/C=C/C(C)=C/C(=O)O)C(C)(C)CCC1` [Retinoic acid], the telomerase activity ([2]; intragastric administration, 90 mg/kg once a day) was 0.22±0.12.

Molecule `Cn1nnc2c(C(N)=O)ncn2c1=O` [Temozolomide] has a Tumor inhibition rate [1, 14] of 39.57% and a Tumor size [1, 14] of 37.63 ± 3.21 mm3.
